The values that follow come from patent publication US20100055078A1, “METHODS OF MAKING A TRANSPLANTABLE BONE REPAIR SYSTEM USING MULTIPOTENT STEM CELLS” (The Government of the U.S.A, as represented by the …, priority 2008, published 2010).

Holding throughout (assay type): cell-based
One assay has as its system MC3T3-E1 osteoblasts. The assay can be described thus: [3H]-thymidine incorporation into DNA in wounded mineralized cell layers (in vitro fracture model). As to the method:
(§1) Cell culture: Cloned MC3T3-E1 osteoblasts (Kodama et al., J. Cell. Physiol. 112:89-95, 1992) were maintained in alpha MEM medium (Catalog No. MT15012CV Fisher Scientific, Pittsburgh, Pa.) containing 10% fetal bovine serum (FBS), 1% antibiotic solution and 1% glutamine solution and subcultured every 3 to 4 days. The cells were subcultured by incubating with trypsin for five minutes and resuspending at a concentration of 3×10^5 cells/ml. For experiments, cells were grown in the same medium as above, using multiwell plates (35 mm for microscopy and 22 mm for thymidine uptake studies). Each well contained a round 12 mm glass cover slip. Cultures for microscopy contained a 22 mm diameter coverslip with a 12 mm coverslip on top. After three days, the cells reached confluence and differentiation medium (DM) was added. DM was alpha MEM medium containing 10% FBS, 1% antibiotic solution and 1% glutamine solution, supplemented with ascorbic acid (50 μg/ml) and β-glycerol phosphate (10 mM) to induce mineralization. The cultures were then incubated for 9 more days. Microscopic examination was done at this time, using Von Kossa stain to confirm mineralization of the cultures. A critical defect in the mineralized cell layers was created by removing the 12 mm coverslips under sterile conditions and then incubating the cultures for an additional 24 hours in DM containing 4% FBS with IGF-1 (20 ng/ml), FGF-2 (0.2 ng/ml), PDGF (3 ng/ml), TGFβ (2 ng/ml) or PGE2 (2 μg/ml). At least triplicate independent biological samples in multiple experiments were carried out for data collection.
Tritiated thymidine incorporation into DNA: At the conclusion of the 24 hour incubation, the culture medium was removed and the cells were incubated for 15 minutes at 37° C. in 1 ml PBS containing tritiated thymidine (4 μCi/ml). Following this incubation, the PBS was removed and the cells washed 3 times with ice cold trichloroacetic acid (TCA) followed by ice cold ethanol and allowed to air dry. Then 1 ml of sarkosyl lysis buffer ([…] containing 1% sarkosyl) was added to each well; all the cells were solubilized after 30 minutes. Finally, after mixing the resulting solution with a pipette, radioactivity was counted in a scintillation counter and protein content was measured. The data was calculated and expressed as disintegrations per minute per microgram protein.

In assay [1] the test system is Wounded Mineralized MC3T3-E1 Cells. The assay can be described thus: Total protein content of wounded mineralized cultures (Bio-Rad DC protein assay). The conditions noted are these: normalized to the control culture; 24 hours of treatment. On the procedure:
as §1
Protein assay: Protein concentration was determined by Bio-Rad DC™ protein assay (Bio-Rad, Hercules, Calif.) according to the manufacturer's protocol.

Another assay deals with MC3T3-E1 cell monolayers. As to the kind of experiment: Cell re-growth and migration into the coverslip defect, rhodamine phalloidin microscopy. On the procedure: as §1, with “([…]).” for “(2 ng/ml) or PGE2 (2 μg/ml).”
Microscopy: At the conclusion of the 24 hour incubation, the remaining 22 mm coverslip containing the regenerating area of the culture was removed. The specimen was rinsed five times in room temperature phosphate buffered saline (PBS) and fixed. Cells were visualized with the F-actin probe rhodamine phalloidin (Invitrogen, Carlsbad, Calif.). After rinsing in distilled water and air drying the samples, the coverslips were mounted on microscope slides using FLUOROMOUNT™ and the cells were examined and photographed. Photomicrographs were made on a Zeiss Axioskop epi-fluorescent microscope using a 40× objective. Migration was measured on the photomicrographs from the site of the wound to the migrating edge using a metric ruler (n=3) for each measurement.

Assay [2] relates to human mesenchymal stem cells (hMSC). As to the kind of experiment: Proliferation of mesenchymal stem cells, CyQuant relative cell number. The conditions noted are these: of treatment. On the procedure:
Mesenchymal stem cells were isolated from bone marrow by adding 50 μl ROSETTESEP® human mesenchymal stem cell enrichment cocktail (StemCell Technologies, Vancouver, BC, Canada) to each ml of bone marrow. The mixture was incubated for 20 minutes at room temperature and then diluted 2× with PBS containing 2% FBS and 1 mM EDTA. The diluted sample was layered on FICOLL-PAQUE™ (StemCell Technologies, Vancouver, BC, Canada) and centrifuged at 300×g for 25 minutes. Enriched MSCs were removed from the FICOLL-PAQUE™:plasma interface, washed with PBS containing 2% FBS and 1 mM EDTA, and resuspended in αMEM culture medium.
Isolated MSCs were seeded to 96-well plates. […] 2,000 cells per well were seeded on 96-well plates. […] Relative cell number was obtained with a CYQUANT® Cell Proliferation kit (Invitrogen, Carlsbad, Calif.) according to the manufacturer's protocol.

Another assay concerns human MSCs. As to the kind of experiment: Cell migration and growth in the center of a pre-treated collagen sponge. On the set-up: key to Cell Growth in Sponge: One positive (+) indicates low cell number visible in the field; two positives (++) indicates a thin layer of cells visible in the field; three positives (+++) indicates many cells visible in the field.
The next assay deals with MC3T3-E1 cells. As to the kind of experiment: Cell growth on pre-treated nylon ribbons. The conditions noted are these: up to 4 days, 0.1 mg/ml fibrinogen, HAHp, 50 ng/ml FGF-2. On the procedure: Growth on Nylon Ribbons: 250,000 MC3T3-E1 osteoblast cells were seeded in 12-well plates containing 1 inch by 1 inch nylon ribbons pre-treated with 0.1 mg/ml fibrinogen or 1 mg/ml HA and 3 mg/ml heparin (HAHp) with or without 50 ng/ml FGF-2. Cells were visualized under 10× objective at 1 and 4 days after seeding.

For the substance fibroblast growth factor-2 [FGF-2], the “increase of thymidine incorporation” value with MC3T3-E1 osteoblasts (wounded MC3T3-E1, 24 hour treatment, FGF-2 0.2 ng/ml, TGFβ 2 ng/ml, PGE2) is given as “more than 4.5 fold”. Besides, the “change in DNA synthesis (thymidine incorporation), in words” value in the assay with MC3T3-E1 osteoblasts (wounded MC3T3-E1, within twenty-four hours of treatment) is given as “significantly enhanced”. Further, in assay [1], the “Total Protein/Culture” value came out at 1.49. Besides, the “re-growth of cells into the defect, in words” value in the assay on MC3T3-E1 cell monolayers (24 hours after injury) was “showed cellular proliferation at the interface of the mature cultures and the defect”. Besides, the “pattern of re-growth and cell morphology in the defect, in words” value with MC3T3-E1 cell monolayers (FGF-2 0.2 ng/ml, PGE2 10 μg/ml) is recorded as “rapid coverage of the defect void”. Also, the relative migration in the assay with MC3T3-E1 cell monolayers (from wound site to migrating edge, 24 hours after injury) is given as 5.4±0.5 mm. Further, the “optimum dose for proliferation” value in assay [2] was 2.5 to 5 ng/mL. The “Cell Growth in Sponge” value with human MSCs (center of collagen sponge, after four days, 100 ng/ml FGF-2, 0.1 mg/ml fibrinogen, HAHp 0.3% w/w heparin with 1% hyaluronic acid) is “+”. Also, the “cells observed in the collagen sponge, in words” value with human MSCs (pre-treated collagen sponge) is “Some cells were observed”. For the same substance, the “cell growth on nylon ribbon, in words” value with MC3T3-E1 cells is “Little or no cell proliferation”.
